In patent publication US20180066295A1, “DEAMINATION OF ORGANOPHOSPHORUS-NUCLEOSIDES” (INSTITUT UNIV. DE CIÈNCIA I TECNOLOGIA, S. A., priority 2015, published 2018):
Counter-ions that a name gives are not always drawn. Like-named read-outs stand apart in the source and are kept apart here.

Legend:
cytidine deaminase = conditions: 37° C.; for yield of deaminated product (HPLC, crude mixture): 5 hours
Description: The reaction was performed at 37° C. during […] and stopped with HCl. Then, the crude reaction was filtered through a 10 KDa membrane, and a portion was diluted and analyzed by HPLC under UV-DAD (ultraviolet-diode array detection). Product identification was performed by comparison to a standard sample.
After 5 hours, the reaction was stopped with HCl and a portion of the reaction was diluted and filtered for HPLC and MS analysis.

adenosine deaminase = biological target: T1, adenosine deaminase (Homo sapiens, UniProt P00813); conditions: commercially available purified enzyme, analytical conditions; cited from earlier work
T1 sequence (P00813 1-363): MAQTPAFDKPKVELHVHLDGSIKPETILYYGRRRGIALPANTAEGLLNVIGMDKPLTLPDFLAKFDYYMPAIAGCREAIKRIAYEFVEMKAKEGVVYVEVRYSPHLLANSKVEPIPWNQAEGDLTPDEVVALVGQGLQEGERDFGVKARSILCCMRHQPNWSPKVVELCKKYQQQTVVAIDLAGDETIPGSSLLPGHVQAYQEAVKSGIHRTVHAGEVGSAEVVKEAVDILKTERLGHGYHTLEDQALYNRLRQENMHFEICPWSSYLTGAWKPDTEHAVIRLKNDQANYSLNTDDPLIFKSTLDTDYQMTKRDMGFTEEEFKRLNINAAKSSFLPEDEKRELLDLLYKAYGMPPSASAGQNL

[1] = 20 mM substrate, KH2PO4 100 mM pH 7.0, 90 AU cytidine deaminase
[2] = 100 mM substrate, KH2PO4 100 mM pH 7.0, 36-240 AU cytidine deaminase

| SMILES | yield of deaminated product (HPLC, crude mixture) (cytidine deaminase; [1]) | yield of deaminated product (HPLC, crude mixture) (cytidine deaminase; [2]) | further results |
| --- | --- | --- | --- |
| COC(=O)[C@H](C)NP(=O)(OC[C@H]1O[C@@H](n2ccc(N)nc2=O)[C@H](O)[C@@H]1O)Oc1ccccc1.Cl (stereo partly drawn) [compound 14-Me, methyl ((((2R,3S,4R,5R)-5-(4-amino-2-oxopyrimidin-1 (2H)-yl)-3,4-dihydroxytetrahydrofuran-2-yl)methoxy)(phenoxy)phosphoryl)-L-alaninate hydrochloride] | > 80% | – | – |
| CC(C)OC(=O)[C@H](C)NP(=O)(OC[C@H]1O[C@@H](n2ccc(N)nc2=O)C(F)(F)[C@@H]1O)Oc1ccccc1 (stereo partly drawn) [compound 18, isopropyl ((((2R,3R,5R)-5-(4-amino-2-oxopyrimidin-1 (2H)-yl)-4,4-difluoro-3-hydroxytetrahydrofuran-2-yl)methoxy)(phenoxy)phosphoryl)-L-alaninate] | – | quantitative yield | – |
| CC(C)OC(=O)[C@H](C)NP(=O)(OC[C@H]1O[C@@H](n2ccc(N)nc2=O)[C@H](O)[C@@H]1O)Oc1ccccc1 (stereo partly drawn) [compound 14, isopropyl ((((2R,3S,4R,5R)-5-(4-amino-2-oxopyrimidin-1(2H)-yl)-3,4-dihydroxytetrahydrofuran-2-yl)methoxy)(phenoxy)phosphoryl)-L-alaninate hydrochloride] | quantitatively | – | – |
| Nc1ncnc2c1ncn2[C@H]1C[C@H](O)[C@@H](CO)O1 [deoxyadenosine] | – | – | deamination yield (adenosine deaminase): 59% |
| COC(=O)[C@H](CC(C)C)NP(=O)(OC[C@H]1O[C@@H](n2ccc(N)nc2=O)[C@H](O)[C@@H]1O)Oc1ccccc1 (stereo partly drawn) [compound 10, methyl ((((2R,3S,4R,5R)-5-(4-amino-2-oxopyrimidin-1(2H)-yl)-3,4-dihydroxytetrahydrofuran-2-yl)methoxy)(phenoxy)phosphoryl)-L-leucinate hydrochloride] | > 70% | – | – |
| COC(=O)[C@@H](NP(=O)(OC[C@H]1O[C@@H](n2cnc(N)nc2=O)C[C@@H]1O)Oc1ccccc1)C(C)C (stereo partly drawn) [compound 21, methyl ((((2R,3S,5R)-5-(4-amino-2-oxo-1,3,5-triazin-1(2H)-yl)-3-hydroxytetrahydrofuran-2-yl)methoxy)(phenoxy)phosphoryl)-L-valinate] | – | – | yield of deaminated product (HPLC) (cytidine deaminase; pH 6, 13 mM substrate, KH2PO4 100 mM, 66 AU cytidine deaminase, 24 hours): higher than 90%; conversion into deaminated product (cytidine deaminase; pH 7, 13 mM substrate, KH2PO4 100 mM, 66 AU cytidine deaminase, 24 hours): quantitatively; conversion into deaminated product (cytidine deaminase; pH 8, 13 mM substrate, KH2PO4 100 mM, 66 AU cytidine deaminase, 24 hours): quantitatively |
| COC(=O)[C@H](CC(C)C)NP(=O)(OC[C@H]1O[C@@H](n2ccc(N)nc2=O)C(F)(F)[C@@H]1O)Oc1ccccc1 (stereo partly drawn) [compound 16, methyl ((((2R,3R,5R)-5-(4-amino-2-oxopyrimidin-1(2H)-yl)-4,4-difluoro-3-hydroxytetrahydrofuran-2-yl)methoxy)(phenoxy)phosphoryl)-L-leucinate] | – | quantitatively | – |
| COC(=O)[C@@H](NP(=O)(OC[C@H]1O[C@@H](n2ccc(N)nc2=O)[C@H](O)[C@@H]1O)Oc1ccccc1)C(C)C (stereo partly drawn) [compound 12, methyl ((((2R,3S,4R,5R)-5-(4-amino-2-oxopyrimidin-1 (2H)-yl)-3,4-dihydroxytetrahydrofuran-2-yl)methoxy)(phenoxy)phosphoryl)-L-valinate hydrochloride] | > 70% | – | – |
| COC(=O)[C@@H](NP(=O)(OC[C@H]1O[C@@H](n2ccc(N)nc2=O)C(F)(F)[C@@H]1O)Oc1ccccc1)C(C)C (stereo partly drawn) [compound 17, methyl ((((2R,3R,5R)-5-(4-amino-2-oxopyrimidin-1 (2H)-yl)-4,4-difluoro-3-hydroxytetrahydrofuran-2-yl)methoxy)(phenoxy)phosphoryl)-L-valinate] | – | quantitative yield | – |
